What was measured:
[1] = test system: MAPK-associated proteins (ERK, JNK, P-38); assay: Western blotting of MAPK-associated signaling proteins in mouse skin tissue; type: in vivo; settings: mouse skin tissue after anagen induction experiment, FIG. 6
Description: To verify the effect of a PDE 3 inhibitor on a MAPK-associated signaling pathway, which is a cell proliferation-associated signaling pathway, western blotting was performed using mouse skin tissue.

[2] = test system: angiogenesis around hair follicles; assay: CD31 immunofluorescence staining for angiogenesis around hair follicles; type: in vivo; settings: mouse skin tissue
Description: To verify the effect of a PDE 3 inhibitor on angiogenesis around hair follicles, immunofluorescence staining with CD31, which is a blood vessel marker protein, was performed. More particularly, mouse skin tissue of a negative control and mouse skin tissue on which cilostazol was applied were rapidly cryotreated and prepared into blocks, and then each block was cut into a tissue section having a thickness of 15 μm using a cryotome and immobilized on a slide. In addition, each tissue section was allowed to react with antibodies against CD31, which is a blood vessel marker protein, as primary antibodies, and then treated with secondary antibodies with green fluorescence capable of detecting CD31, and the resulting tissue sections were observed using a fluorescence microscope and photographed, and the area of blood vessels was measured using an image analysis program.

[3] = test system: human hair follicle-derived hair dermal papilla cells (hDPCs); assay: BrdU assay of cell division of hDPCs; type: cell-based; settings: 0 μM to 10 μM, 48 hours, versus negative control, FIG. 1
Description: To evaluate the effect of PDE on the proliferation of hair follicle cells, human hair follicle-derived hDPCs were treated with cilostazol, cilostamide, trequinsin, or milrinone, which are well-known PDE 3 inhibitors, and then subjected to a BrdU assay.
First, primarily cultured hDPCs were treated with cilostazol, cilostamide, trequinsin, or milrinone at a concentration of 0 μM to 10 μM, cultured for 44 hours, treated with a BrdU reagent, and then allowed to react for 4 hours. After culturing for a total of 48 hours, the presence or absence of luminescence was measured using a luminometer for detecting BrdU, and cell division and activation degrees of the hDPCs were identified by comparison with a negative control.

human hair follicles [4] = assay: Ki-67 immunofluorescence staining of cultured hair follicles; settings: cultured for two days, FIG. 3B
Description: In addition, to identify cell proliferation of the cultured hair follicles through the test, immunofluorescence staining was performed using antibodies against Ki-67, which is a cell division marker. The hair follicles were treated with cilostazol, cultured for two days, and made into a tissue section, the tissue section was cut to a thickness of 4 μm and fixed on a slide, followed by reaction with Ki-67 treated with primary antibodies and treatment with secondary antibodies with green fluorescence capable of detecting Ki-67, and then the resulting section was observed using a fluorescence microscope and photographed, and the number of Ki-67 positive cells was identified. In addition, the nuclei of the hair follicles was stained using a DAPI reagent.

ERK signaling pathway = assay: Western blotting of ERK phosphorylation in hDPCs; type: cell-based, human; settings: 1 μM, within 15 minutes, FIG. 2
Description: To identify the effects of PDE 3 inhibitors on an ERK signaling pathway, which is a key cell proliferation-associated signaling pathway, human hDPCs were treated with cilostazol, cilostamide, trequinsin, or milrinone at a concentration of 1 μM for 0 minute, 5 minutes, 15 minutes, and 60 minutes, and western blotting was performed thereon.

C57BL/6 mice = assay: Anagen induction test in C57BL/6 mouse model; type: in vivo; settings: 0.2 wt % or 1 wt % applied once a day for three weeks
Excerpt: To identify hair growth effects by PDE 3 inhibitors, an anagen induction effect was examined using a C57BL/6 mouse model. Although the hair cycle of human hair varies depending on individuals, mice have the same hair cycle at an initial stage and all hairs enter into a telogen phase 7 weeks to 8 weeks after birth, which then turns into an anagen phase. To evaluate an anagen induction effect using these characteristics of mice, dorsal hairs of 8-week-old C57BL/6 mice in the telogen phase were removed, 0.2 wt % or 1 wt % of cilostazol was applied thereon once a day for three weeks, and then through comparison with a negative control and the case of 2 wt % of minoxidil as a positive control, the presence or absence of hair growth and an anagen induction degree were identified. In addition, skin tissue from which anagen hair grew was fixed with paraffin and stained with hematoxylin and eosin to conduct a histological examination, and the results thereof are shown in FIG. 5.

human hair follicles [5] = assay: Ex vivo hair follicle organ culture test; settings: 1 μM or 10 μM, day 2, 4 and 6, versus negative control, FIG. 3A
Description: To evaluate the effects of PDE 3 inhibitors on human hair follicle growth, an ex vivo hair follicle organic culture test was performed using cilostazol. More particularly, to conduct the ex vivo hair follicle organic culture test, scalp tissues obtained from volunteers were divided into follicular units, and parts below sebaceous glands of the divided hair follicles were cut off and the remaining parts of the hair follicles were used. The prepared hair follicles were cultured in a culture medium containing a negative control reagent or 1 μM or 10 μM cilostazol, the length of hair growing on day 2, day 4, and day 6 was measured, and then a hair growth promotion effect of the human hair follicles was identified by comparison with a negative control.

Row | Structure (SMILES) | phosphorylation of the MAPK-associated signaling proteins (ERK, JNK, P-38) [1] | angiogenesis (CD31 staining) ([2]; FIG. 7A) | area of blood vessels ([2]; image analysis, FIG. 7B) | cell division of the hDPCs (BrdU) [3] | cell division in the human hair follicles (Ki-67 positive cells) (human hair follicles [4]) | phosphorylation of intracellular ERK proteins (ERK signaling pathway) | proportion of a site on which anagen hair grew (C57BL/6 mice; FIG. 4) | formation of hair follicles (hematoxylin and eosin histology) (C57BL/6 mice; FIG. 5A) | anagen induction score (C57BL/6 mice; FIG. 5B) | skin thickness (C57BL/6 mice; FIG. 5C) | hair growth of the human hair follicles (length of hair) (human hair follicles [5])
1 | O=C1CCc2cc(OCCCCc3nnnn3C3CCCCC3)ccc2N1 [cilostazol] | increased | induced | increased | significantly increased | increased | increased | significantly increased | promoted | increases | increases | promoted hair growth
2 | CN(C(=O)CCCOc1ccc2[nH]c(=O)ccc2c1)C1CCCCC1 [cilostamide] | – | – | – | significantly increased | – | increased | – | – | – | – | –
3 | COc1cc2c(cc1OC)-c1c/c(=N\c3c(C)cc(C)cc3C)n(C)c(=O)n1CC2 [trequinsin] | – | – | – | significantly increased | – | increased | – | – | – | – | –
4 | Cc1[nH]c(=O)c(C#N)cc1-c1ccncc1 [milrinone] | – | – | – | significantly increased | – | increased | – | – | – | – | –

— US10588906B2, “Method of preventing hair loss or promoting hair growth by using phosphodiesterase 3 inhibitor” (SEOUL NATIONAL UNIVERSITY HOSPITAL, priority 2017, dated 2020)
